The IC50 is the concentration that gives 50% inhibition. The inhibition is the change of the read-out against control, counted positive when it falls. Low readings indicate a response near the control, high ones a response far below the control.

Phosphatidylinositol 4,5-bisphosphate 3-kinase catalytic subunit beta isoform, sequence (P42338 whole entry, canonical isoform): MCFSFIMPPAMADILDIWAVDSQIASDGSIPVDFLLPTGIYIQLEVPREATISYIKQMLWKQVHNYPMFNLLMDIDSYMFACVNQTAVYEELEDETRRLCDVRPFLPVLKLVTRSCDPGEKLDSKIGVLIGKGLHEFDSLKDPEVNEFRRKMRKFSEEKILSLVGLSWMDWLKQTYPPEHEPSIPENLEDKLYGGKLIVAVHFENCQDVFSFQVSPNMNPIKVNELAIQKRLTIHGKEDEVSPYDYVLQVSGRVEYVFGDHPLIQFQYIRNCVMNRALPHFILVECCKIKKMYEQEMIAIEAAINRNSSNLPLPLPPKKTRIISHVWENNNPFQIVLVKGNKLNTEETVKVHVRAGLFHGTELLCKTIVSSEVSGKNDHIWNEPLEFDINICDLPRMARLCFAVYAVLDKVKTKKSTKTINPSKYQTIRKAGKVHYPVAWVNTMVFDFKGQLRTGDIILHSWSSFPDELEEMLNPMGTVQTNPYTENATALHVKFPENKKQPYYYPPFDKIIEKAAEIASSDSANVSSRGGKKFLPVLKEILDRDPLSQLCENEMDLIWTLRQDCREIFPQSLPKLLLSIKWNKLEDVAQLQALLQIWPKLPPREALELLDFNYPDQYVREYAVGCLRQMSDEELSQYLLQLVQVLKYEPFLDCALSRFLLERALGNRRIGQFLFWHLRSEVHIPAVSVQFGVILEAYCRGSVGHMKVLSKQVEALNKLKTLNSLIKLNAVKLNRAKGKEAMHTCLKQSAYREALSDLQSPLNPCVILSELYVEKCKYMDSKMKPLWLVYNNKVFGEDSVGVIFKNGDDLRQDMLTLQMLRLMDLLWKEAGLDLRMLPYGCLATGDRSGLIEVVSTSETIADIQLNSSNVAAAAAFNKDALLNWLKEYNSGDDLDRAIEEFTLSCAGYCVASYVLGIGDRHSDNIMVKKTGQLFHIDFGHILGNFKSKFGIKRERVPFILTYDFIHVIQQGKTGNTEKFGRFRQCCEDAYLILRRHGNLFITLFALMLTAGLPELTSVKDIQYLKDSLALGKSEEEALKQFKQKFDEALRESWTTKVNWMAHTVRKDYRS

The target in one assay is DNA-dependent protein kinase catalytic subunit (Homo sapiens, UniProt P78527). Kind of assay: Inhibition of DNA-PK (unknown origin) in the presence of ATP.
DNA-dependent protein kinase catalytic subunit, sequence (P78527 whole entry): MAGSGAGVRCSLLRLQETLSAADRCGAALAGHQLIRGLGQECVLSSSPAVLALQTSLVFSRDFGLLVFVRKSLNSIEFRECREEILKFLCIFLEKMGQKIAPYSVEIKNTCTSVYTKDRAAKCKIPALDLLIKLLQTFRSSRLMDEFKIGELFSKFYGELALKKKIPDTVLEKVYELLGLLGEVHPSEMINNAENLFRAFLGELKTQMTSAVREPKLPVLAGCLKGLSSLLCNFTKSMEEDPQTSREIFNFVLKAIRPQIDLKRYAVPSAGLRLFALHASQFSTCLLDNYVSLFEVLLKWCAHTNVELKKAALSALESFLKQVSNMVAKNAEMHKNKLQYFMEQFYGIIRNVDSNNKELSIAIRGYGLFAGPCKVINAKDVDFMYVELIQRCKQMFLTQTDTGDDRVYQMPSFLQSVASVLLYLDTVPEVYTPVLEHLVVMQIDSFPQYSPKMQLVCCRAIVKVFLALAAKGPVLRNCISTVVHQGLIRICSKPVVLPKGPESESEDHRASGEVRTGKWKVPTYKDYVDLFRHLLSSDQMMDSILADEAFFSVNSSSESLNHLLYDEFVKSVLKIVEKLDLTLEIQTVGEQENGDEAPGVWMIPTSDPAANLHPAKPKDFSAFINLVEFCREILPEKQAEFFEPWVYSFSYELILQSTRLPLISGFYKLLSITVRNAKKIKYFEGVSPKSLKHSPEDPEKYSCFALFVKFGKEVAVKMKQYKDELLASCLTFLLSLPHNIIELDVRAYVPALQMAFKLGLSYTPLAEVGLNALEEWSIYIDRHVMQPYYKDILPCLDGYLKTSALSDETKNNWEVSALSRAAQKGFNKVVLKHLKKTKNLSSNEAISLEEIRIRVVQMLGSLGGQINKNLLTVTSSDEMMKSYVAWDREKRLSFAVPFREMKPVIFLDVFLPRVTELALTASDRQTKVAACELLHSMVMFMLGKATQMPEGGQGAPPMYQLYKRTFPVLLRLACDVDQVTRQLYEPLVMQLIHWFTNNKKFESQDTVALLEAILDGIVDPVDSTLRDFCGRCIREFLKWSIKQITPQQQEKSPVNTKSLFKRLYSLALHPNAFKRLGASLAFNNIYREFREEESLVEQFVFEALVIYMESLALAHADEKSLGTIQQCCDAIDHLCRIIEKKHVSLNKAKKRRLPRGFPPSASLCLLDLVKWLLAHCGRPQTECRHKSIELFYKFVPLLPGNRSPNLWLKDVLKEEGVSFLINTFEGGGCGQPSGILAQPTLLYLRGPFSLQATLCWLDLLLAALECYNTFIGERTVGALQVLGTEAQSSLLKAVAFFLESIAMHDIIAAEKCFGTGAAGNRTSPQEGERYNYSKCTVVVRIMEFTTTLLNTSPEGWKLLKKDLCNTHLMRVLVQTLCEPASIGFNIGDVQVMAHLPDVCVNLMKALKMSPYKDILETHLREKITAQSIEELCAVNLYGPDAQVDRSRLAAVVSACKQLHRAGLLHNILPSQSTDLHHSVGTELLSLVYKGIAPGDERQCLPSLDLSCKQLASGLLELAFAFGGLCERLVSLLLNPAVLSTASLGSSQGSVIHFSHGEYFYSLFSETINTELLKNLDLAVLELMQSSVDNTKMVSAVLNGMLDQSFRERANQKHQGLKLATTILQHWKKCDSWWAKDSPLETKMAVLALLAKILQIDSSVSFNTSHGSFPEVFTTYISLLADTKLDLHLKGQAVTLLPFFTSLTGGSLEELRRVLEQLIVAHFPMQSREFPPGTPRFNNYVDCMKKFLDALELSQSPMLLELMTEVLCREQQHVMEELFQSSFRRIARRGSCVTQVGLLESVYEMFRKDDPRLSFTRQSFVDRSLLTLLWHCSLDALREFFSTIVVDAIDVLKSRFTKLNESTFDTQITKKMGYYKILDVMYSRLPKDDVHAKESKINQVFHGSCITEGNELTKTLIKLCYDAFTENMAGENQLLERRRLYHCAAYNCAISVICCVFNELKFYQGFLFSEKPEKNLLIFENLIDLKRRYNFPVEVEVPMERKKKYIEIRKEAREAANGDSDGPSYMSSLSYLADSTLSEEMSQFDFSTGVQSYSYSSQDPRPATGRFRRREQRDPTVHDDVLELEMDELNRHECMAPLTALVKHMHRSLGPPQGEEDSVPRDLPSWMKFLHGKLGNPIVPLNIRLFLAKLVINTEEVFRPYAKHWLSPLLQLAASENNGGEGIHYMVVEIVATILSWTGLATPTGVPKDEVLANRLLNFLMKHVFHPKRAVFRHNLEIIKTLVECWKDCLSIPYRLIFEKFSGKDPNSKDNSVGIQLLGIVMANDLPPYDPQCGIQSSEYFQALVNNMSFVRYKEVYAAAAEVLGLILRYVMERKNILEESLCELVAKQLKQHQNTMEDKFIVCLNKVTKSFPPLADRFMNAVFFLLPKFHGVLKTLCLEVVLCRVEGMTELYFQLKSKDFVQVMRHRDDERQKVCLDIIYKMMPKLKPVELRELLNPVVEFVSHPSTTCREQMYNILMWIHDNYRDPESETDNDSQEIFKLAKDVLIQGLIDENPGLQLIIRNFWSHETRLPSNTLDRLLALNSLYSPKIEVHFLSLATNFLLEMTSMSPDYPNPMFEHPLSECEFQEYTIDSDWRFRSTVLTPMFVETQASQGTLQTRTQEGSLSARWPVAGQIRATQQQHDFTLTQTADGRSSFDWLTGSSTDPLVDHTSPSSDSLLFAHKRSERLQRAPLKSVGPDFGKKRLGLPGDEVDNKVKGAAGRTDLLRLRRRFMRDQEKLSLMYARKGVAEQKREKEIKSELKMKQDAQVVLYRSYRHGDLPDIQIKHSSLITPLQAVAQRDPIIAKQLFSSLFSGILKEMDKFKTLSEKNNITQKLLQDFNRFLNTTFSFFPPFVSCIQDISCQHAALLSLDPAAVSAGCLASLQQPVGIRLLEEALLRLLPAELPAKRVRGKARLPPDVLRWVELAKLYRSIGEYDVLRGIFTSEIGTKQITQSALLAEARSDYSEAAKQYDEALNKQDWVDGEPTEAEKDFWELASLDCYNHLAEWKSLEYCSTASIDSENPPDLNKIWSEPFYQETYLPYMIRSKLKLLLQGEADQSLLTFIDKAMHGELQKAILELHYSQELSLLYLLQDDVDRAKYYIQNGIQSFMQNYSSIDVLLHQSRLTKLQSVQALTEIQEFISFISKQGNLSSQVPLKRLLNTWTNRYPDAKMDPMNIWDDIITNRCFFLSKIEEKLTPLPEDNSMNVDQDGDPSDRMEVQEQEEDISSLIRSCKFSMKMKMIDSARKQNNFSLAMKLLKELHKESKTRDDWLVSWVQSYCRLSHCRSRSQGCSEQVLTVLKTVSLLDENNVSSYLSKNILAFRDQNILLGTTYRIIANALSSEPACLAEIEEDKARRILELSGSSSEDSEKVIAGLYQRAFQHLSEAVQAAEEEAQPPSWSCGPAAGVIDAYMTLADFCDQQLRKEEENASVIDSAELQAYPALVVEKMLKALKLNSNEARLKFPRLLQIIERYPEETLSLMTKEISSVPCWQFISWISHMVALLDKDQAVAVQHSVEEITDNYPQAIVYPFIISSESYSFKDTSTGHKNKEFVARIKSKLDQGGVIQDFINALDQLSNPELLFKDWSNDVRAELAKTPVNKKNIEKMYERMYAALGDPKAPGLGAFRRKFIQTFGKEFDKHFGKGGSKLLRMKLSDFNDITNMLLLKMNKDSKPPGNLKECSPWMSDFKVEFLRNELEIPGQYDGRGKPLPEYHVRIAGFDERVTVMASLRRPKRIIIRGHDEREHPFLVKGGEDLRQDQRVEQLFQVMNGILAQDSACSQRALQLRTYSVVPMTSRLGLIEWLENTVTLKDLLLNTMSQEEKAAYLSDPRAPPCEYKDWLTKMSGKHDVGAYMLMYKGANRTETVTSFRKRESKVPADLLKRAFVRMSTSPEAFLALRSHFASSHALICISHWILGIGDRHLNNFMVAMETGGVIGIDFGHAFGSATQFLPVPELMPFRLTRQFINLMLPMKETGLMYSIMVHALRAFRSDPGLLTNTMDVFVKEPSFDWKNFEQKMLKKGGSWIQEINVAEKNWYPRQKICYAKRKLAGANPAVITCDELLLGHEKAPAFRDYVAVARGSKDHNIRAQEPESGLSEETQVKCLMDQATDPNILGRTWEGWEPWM
Regarding `Cc1cc(C(C)Nc2ccccc2)c2oc(N3CCOCC3)cc(=O)c2c1` (stereo unspecified), the IC50 turned out to be 120 nM.

In the next assay the target is T1, Phosphatidylinositol 4,5-bisphosphate 3-kinase catalytic subunit delta isoform (Homo sapiens) (UniProt O00329).
T1 sequence (whole entry): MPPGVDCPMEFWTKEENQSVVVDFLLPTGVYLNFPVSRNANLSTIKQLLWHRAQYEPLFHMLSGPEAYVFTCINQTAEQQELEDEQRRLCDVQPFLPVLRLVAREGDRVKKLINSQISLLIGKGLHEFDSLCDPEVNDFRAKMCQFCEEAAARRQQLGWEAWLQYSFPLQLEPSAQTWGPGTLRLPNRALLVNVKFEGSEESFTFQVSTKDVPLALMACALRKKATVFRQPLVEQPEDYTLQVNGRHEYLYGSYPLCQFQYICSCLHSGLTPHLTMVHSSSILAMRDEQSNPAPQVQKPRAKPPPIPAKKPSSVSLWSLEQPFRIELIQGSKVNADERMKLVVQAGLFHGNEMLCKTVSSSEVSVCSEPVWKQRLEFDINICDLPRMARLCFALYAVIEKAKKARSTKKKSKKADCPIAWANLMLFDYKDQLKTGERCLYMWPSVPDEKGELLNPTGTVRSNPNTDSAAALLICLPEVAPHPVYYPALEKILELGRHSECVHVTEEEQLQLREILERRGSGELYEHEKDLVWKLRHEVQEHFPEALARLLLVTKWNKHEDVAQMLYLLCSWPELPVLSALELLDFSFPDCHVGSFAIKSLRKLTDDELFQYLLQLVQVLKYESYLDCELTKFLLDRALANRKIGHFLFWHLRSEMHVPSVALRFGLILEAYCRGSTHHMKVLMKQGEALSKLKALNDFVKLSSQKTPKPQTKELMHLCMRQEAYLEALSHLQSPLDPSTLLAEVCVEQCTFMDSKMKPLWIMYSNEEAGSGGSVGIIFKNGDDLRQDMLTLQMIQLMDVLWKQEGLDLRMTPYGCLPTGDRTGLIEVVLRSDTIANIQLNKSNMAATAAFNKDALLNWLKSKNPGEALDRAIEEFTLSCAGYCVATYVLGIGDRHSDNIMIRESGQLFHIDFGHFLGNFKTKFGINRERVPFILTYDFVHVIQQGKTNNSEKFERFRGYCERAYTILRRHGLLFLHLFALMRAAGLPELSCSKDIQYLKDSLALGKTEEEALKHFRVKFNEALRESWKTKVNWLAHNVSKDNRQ
Put plainly: Inhibition of PI3Kdelta (unknown origin) at 10 uM relative to control.
In the case of `Cc1cc(C(C)Nc2ccccc2)c2oc(N3CCOCC3)nc(=O)c2c1` (stereo unspecified), the inhibition came to 87%.

Another assay concerns the target Phosphatidylinositol 4,5-bisphosphate 3-kinase catalytic subunit beta isoform (Homo sapiens, UniProt P42338). Kind of assay: Inhibition of PI3Kbeta (unknown origin) incubated for 60 mins in the presence of ATP by Kinase-Glo luminescence assay. In general terms: In Kinase-Glo more light means more ATP remaining.
In the case of `Cc1cc(C(C)Nc2cccc(Cl)c2F)c2oc(N3CCOCC3)nc(=O)c2c1` (stereo unspecified), the IC50 came out at 272 nM.
Consider `Cc1cc(C(C)Nc2ccccc2Cl)c2oc(N3CCOCC3)nc(=O)c2c1` (stereo unspecified), for which the 50% inhibitory concentration (IC50) was 136 nM.
Still for that read-out and setting: the result for `Cc1cc(C(C)Oc2ccc(Cl)c(C)c2)c2oc(N3CCOCC3)nc(=O)c2c1` (stereo unspecified) reads more than 20000 nM; that for `Cc1cc(C(C)Nc2cc(F)cc(F)c2)c2oc(N3CCOCC3)nc(=O)c2c1` (stereo unspecified), 152 nM.
Turning to `Cc1cc(C(C)Nc2cccc(Cl)c2)c2oc(N3CCOCC3)nc(=O)c2c1` (stereo unspecified), the IC50 amounted to 72.7 nM.
For `COc1cccc(OC(C)c2cc(C)cc3c(=O)nc(N4CCOCC4)oc23)c1` (stereo unspecified), the IC50 amounted to 1880 nM.
Turning to `Cc1cc(C(C)Nc2ccc(F)c(F)c2)c2oc(N3CCOCC3)nc(=O)c2c1` (stereo unspecified), the IC50 turned out to be 62.7 nM.
As for `COc1ccc(OC(C)c2cc(C)cc3c(=O)nc(N4CCOCC4)oc23)cc1` (stereo unspecified), the half-inhibitory concentration (IC50) is more than 20000 nM.
For the compound `Cc1cc(C(C)Oc2ccccc2C)c2oc(N3CCOCC3)nc(=O)c2c1` (stereo unspecified), the IC50 was 227 nM.
Turning to `Cc1cc(C(C)Nc2ccc(Br)cc2)c2oc(N3CCOCC3)nc(=O)c2c1` (stereo unspecified), the IC50 amounted to 12600 nM.
Regarding `Cc1cccc(OC(C)c2cc(C)cc3c(=O)nc(N4CCOCC4)oc23)c1` (stereo unspecified), the IC50 is 2440 nM.
On to `Cc1cc(C(C)Nc2cc(F)ccc2F)c2oc(N3CCOCC3)nc(=O)c2c1` (stereo unspecified), for which the IC50 was 70 nM.
Still for that read-out and setting: the result for `Cc1cc(C(C)Oc2cc(C)c(Cl)c(C)c2)c2oc(N3CCOCC3)nc(=O)c2c1` (stereo unspecified) reads more than 20000 nM; that for `Cc1ccc(OC(C)c2cc(C)cc3c(=O)nc(N4CCOCC4)oc23)cc1` (stereo unspecified), more than 20000 nM; that for `Cc1cc(C(C)Oc2ccccc2)c2oc(N3CCOCC3)nc(=O)c2c1` (stereo unspecified), 1430 nM.
Turning to `Cc1cc(C(C)Nc2cccc3ccccc23)c2oc(N3CCOCC3)nc(=O)c2c1` (stereo unspecified), the concentration for half-maximal inhibition (IC50) was 49.2 nM.
Same read-out and setting: as for `Cc1cc(C(C)Nc2ccccc2)c2oc(N3CCOCC3)nc(=O)c2c1` (stereo unspecified), the figure is 240 nM.
As to `Cc1cc(C(C)Nc2ccc(F)cc2F)c2oc(N3CCOCC3)nc(=O)c2c1` (stereo unspecified), the half-inhibitory concentration (IC50) is 281 nM.
`Cc1cc(C(C)Nc2c(F)cccc2F)c2oc(N3CCOCC3)nc(=O)c2c1` (stereo unspecified): the half-maximal inhibitory concentration (IC50) came out at 1220 nM.

The record behind these values is ChEMBL document CHEMBL5113448, “Synthesis and biological evaluation of 4H-benzo[e][1,3]oxazin-4-ones analogues of TGX-221 as inhibitors of PI3Kβ” (Bioorg Med Chem, 2022).
